# From PubChem BioAssay AID1963837 (Molecular Pharmacology Branch, DTP, NCI, 2024)
# Several values for one entry are separate records, joined by “and”; a condition that tells them apart may be missing. Equal values may be shown once.
# System: 843126-344-R-J1-PDC complex spheroid viability
# Experiment: Anticancer human tumor 843126-344-R-J1-PDC patient-derived melanoma cell line growth inhibition [POLQ]
# Conditions: for viability, T/C: stronger effect = lower value
# Description: Multicellular complex tumor spheroid response to Polymerase (POL) inhibitors (novobiocin, ART-558, RP6685) in combination with a variety of drugs and investigational agents in selected tumor cell lines
# The POL inhibitors (novobiocin, ART-558, and RP6685) were evaluated both individually and in combination with standard of care and investigational anticancer small molecules within a complex spheroid model of solid tumors. . Complex spheroids include a stromal component modeled by human endothelial cells (HUVEC) and fibroblasts modeled by human mesenchymal stem cells (MSCs). The concentration ranges selected for each drug and investigational agent were based upon clinically achievable concentrations if the clinical Cmax of the agent was known.
# Compounds. The drugs and investigational agents: novobiocin (NSC847541), ART-558 (NSC835418), RP-6685 (NSC848927), peposertib (NSC802822), ceralasertib (NSC780249), elimusertib (NSC800525), camonsertib (NSC841442), AZD-1390 (NSC803789), olaparib (NSC753686), talazoparib (NSC767125), rucaparib (NSC756644), sotorasib (NSC818433), MRTX-1133 (NSC836407), SN-38 (NSC673596), topotecan (NSC609699), epotoside (NSC141540), doxorubicin (NSC123127), gemcitabine (NSC613327), 5-fluorouracil (NSC19893), paclitaxel (NSC125973), vemurafenib (NSC761431), MSA-2 (NSC828583), SN-011 (NSC837082), adavosertib (NSC754352), prexasertib (NSC758257), carboplatin (NSC241240) and oxaliplatin (NSC266046), were obtained from the National Cancer Institute (NCI) Developmental Therapeutics Program Chemical Repository (21). The FDA-approved anticancer drug set is available from the Developmental Therapeutics Program at https://dtp.cancer.gov/organization/dscb/obtaining/. […] The stock solutions were prepared in dimethyl sulfoxide (DMSO, Sigma-Aldrich, St. Louis, MO, cat. D2650), except for the platinum compounds which were prepared in saline (Quality Biological, Gaithersburg, MD, cat. 114-055-101), at 800-fold the tested concentration and stored at -70 degrees C prior to their use. All drugs and investigational agents were tested over a range starting from a high concentration at or near the clinical Cmax and decreasing in half-log increments. If the clinical Cmax for an agent had not been determined, the highest concentration tested was 10 microM, except for SN-38, which was tested at a high concentration of 1 microM.
# Cell Culture. All cells were maintained in an incubator at 37 degrees C and 5% CO2 with 95% humidity. The PDC lines were cultured according to standard operating procedures established by the NCI PDMR (https://pdmr.cancer.gov). Table 3 of the manuscript, lists the cell lines along with the number of the three cell types plated to form the mct-spheroids and media for tumor cell growth. After thawing, all PDC lines, except 997537-175-T-J1-PDC and 415267-285-R-J2-PDC, were cultured in Matrigel-coated flasks prepared with a working solution of 1X Ham's F-12 nutrient mix, without supplementation (Thermo Fisher Scientific, cat. 11765054), 100 U/mL penicillin-streptomycin (Thermo Fisher Scientific, cat. 15140122), and 2.5% Matrigel (Corning Inc., Corning, NY, cat. 354248) for the first three passages. The two PDC lines 997537-175-T-J1-PDC and 415267-285-R-J2-PDC were cultured on uncoated flasks. The 857933-349-R-J2-PDC line was cultured in 6C/Colon 1B media containing advanced DMEM/F-12 (Thermo Fisher Scientific, cat. 12634028), 10 mM HEPES (Thermo Fisher Scientific, cat. 15630080), 1X GlutaMAX supplement (Thermo Fisher Scientific, cat. 35050061), 0.1 mg/mL primocin (InvivoGen, San Diego, CA, cat. ant-pm-2), 10% defined fetal bovine serum, heat inactivated (HyClone Laboratories Inc., Logan, UT, cat. SH30070.03HI), 50% L-WRN conditioned media (ATCC, cat. CRL-3276), 1.25 mM N-Acetyl-L-cysteine (Sigma-Aldrich, cat. A9165), 10 mM nicotinamide (Sigma-Aldrich, cat. N0636), 1X B-27 supplement (Thermo Fisher Scientific, cat. 17504044), 1X N-2 supplement (Thermo Fisher Scientific, cat. […]
# 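For viability, T/C in this document: spheroids exposed to drugs for seven days before readout.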
smiles,measurement,setting,value
CC1COCCN1c1cc(C2(O)CC3CCC(C2)O3)c2cnn(-c3ccn[nH]3)c2n1 (configuration not stated) + Nc1ccc(C#CCN(C(=O)Cc2ncc(C(F)(F)F)cc2C(F)(F)F)c2ccc(F)cc2)nn1,IC50,"curve of first compound, second compound 0.0316 µM",390 nM
same,IC50,"curve of first compound, second compound 0.1 µM",435 nM
same,IC50,"curve of first compound, second compound 0.316 µM",369 nM
same,IC50,"curve of first compound, second compound 1 µM",312 nM
same,IC50,"curve of first compound, second compound 3.16 µM",344 nM
same,IC50,"curve of first compound, second compound 10 µM",210 nM
same,"viability, T/C","second compound 0.0316 µM, first compound 0.0316 µM",82.7%
same,"viability, T/C","second compound 0.0316 µM, first compound 0.1 µM",65.4%
same,"viability, T/C","second compound 0.0316 µM, first compound 0.316 µM",54.9%
same,"viability, T/C","second compound 0.0316 µM, first compound 1 µM",37.2%
same,"viability, T/C","second compound 0.0316 µM, first compound 3.16 µM",29.7%
same,"viability, T/C","second compound 0.0316 µM, first compound 10 µM",20.2%
same,"viability, T/C","second compound 0.1 µM, first compound 0.0316 µM",74.5%
same,"viability, T/C","second compound 0.1 µM, first compound 0.1 µM",79.2%
same,"viability, T/C","second compound 0.1 µM, first compound 0.316 µM",51.6%
same,"viability, T/C","second compound 0.1 µM, first compound 1 µM",37.6%
same,"viability, T/C","second compound 0.1 µM, first compound 3.16 µM",31.9%
same,"viability, T/C","second compound 0.1 µM, first compound 10 µM",22%
same,"viability, T/C","second compound 0.316 µM, first compound 0.0316 µM",73.2%
same,"viability, T/C","second compound 0.316 µM, first compound 0.1 µM",69.9%
same,"viability, T/C","second compound 0.316 µM, first compound 0.316 µM",49.1%
same,"viability, T/C","second compound 0.316 µM, first compound 1 µM",36.5%
same,"viability, T/C","second compound 0.316 µM, first compound 3.16 µM",28%
same,"viability, T/C","second compound 0.316 µM, first compound 10 µM",17.9%
same,"viability, T/C","second compound 1 µM, first compound 0.0316 µM",85.9%
same,"viability, T/C","second compound 1 µM, first compound 0.1 µM",64.7%
same,"viability, T/C","second compound 1 µM, first compound 0.316 µM",48.5%
same,"viability, T/C","second compound 1 µM, first compound 1 µM",38.8%
same,"viability, T/C","second compound 1 µM, first compound 3.16 µM",28.7%
same,"viability, T/C","second compound 1 µM, first compound 10 µM",18.7%
same,"viability, T/C","second compound 3.16 µM, first compound 0.0316 µM",79.1%
same,"viability, T/C","second compound 3.16 µM, first compound 0.1 µM",70.1%
same,"viability, T/C","second compound 3.16 µM, first compound 0.316 µM",46.6%
same,"viability, T/C","second compound 3.16 µM, first compound 1 µM",38.6%
same,"viability, T/C","second compound 3.16 µM, first compound 3.16 µM",29.1%
same,"viability, T/C","second compound 3.16 µM, first compound 10 µM",19.6%
same,"viability, T/C","second compound 10 µM, first compound 0.0316 µM",71.5%
same,"viability, T/C","second compound 10 µM, first compound 0.1 µM",56.7%
same,"viability, T/C","second compound 10 µM, first compound 0.316 µM",47.8%
same,"viability, T/C","second compound 10 µM, first compound 1 µM",33%
same,"viability, T/C","second compound 10 µM, first compound 3.16 µM",26.7%
same,"viability, T/C","second compound 10 µM, first compound 10 µM",20.1%
CCc1cc2c(N3CCc4c(cc(Cn5ccnc5)cc4-c4cn(C)nc4C(F)(F)F)C3=O)ccnc2c(OC)n1,"viability, T/C",compound 0.0316 µM,85.3% and 83.1% and 106%
same,"viability, T/C",compound 0.1 µM,78.4% and 81% and 75.8%
same,"viability, T/C",compound 0.316 µM,84.9% and 88.6% and 90.4%
same,"viability, T/C",compound 1 µM,76% and 83.2% and 91.5%
same,"viability, T/C",compound 3.16 µM,74.6% and 78.3% and 72.3%
same,"viability, T/C",compound 10 µM,53.8% and 58.4% and 66.4%
same,IC50,curve of compound,> 10000 nM
CC(=O)O[C@H]1C(=O)[C@@]2(C)[C@H]([C@H](OC(=O)c3ccccc3)[C@]3(O)C[C@H](OC(=O)[C@H](O)[C@@H](NC(=O)c4ccccc4)c4ccccc4)C(C)=C1C3(C)C)[C@]1(OC(C)=O)CO[C@@H]1C[C@@H]2O,"viability, T/C",compound 0.00949 µM,65.3% and 60.5%
same,"viability, T/C",compound 0.03 µM,54.6% and 53.3%
same,"viability, T/C",compound 0.0949 µM,64.2% and 54.8%
same,"viability, T/C",compound 0.3 µM,75.2% and 57%
same,"viability, T/C",compound 0.949 µM,74.7% and 55.3%
same,"viability, T/C",compound 3 µM,76% and 66.8%
same,IC50,curve of compound,> 3000 nM
O=C(c1cc(Cc2n[nH]c(=O)c3ccccc23)ccc1F)N1CCN(C(=O)C2CC2)CC1,"viability, T/C",compound 0.0316 µM,91.6% and 93.9% and 74.9%
same,"viability, T/C",compound 0.1 µM,78.7% and 90% and 91.5%
same,"viability, T/C",compound 0.316 µM,103% and 77.3% and 93.6%
same,"viability, T/C",compound 1 µM,74.1% and 76.7% and 83%
same,"viability, T/C",compound 3.16 µM,86.2% and 79.5% and 87.6%
same,"viability, T/C",compound 10 µM,81% and 72.1% and 82.1%
same,IC50,curve of compound,> 10000 nM
COc1ccc([C@@H](O)c2cc(-c3ncnc4cc(N5CCOCC5)ccc34)c(F)cc2Cl)nn1,"viability, T/C",compound 0.0316 µM,103% and 80.6% and 95.7%
same,"viability, T/C",compound 0.1 µM,84.7% and 89.8% and 74.2%
same,"viability, T/C",compound 0.316 µM,92.1% and 102% and 93.4%
same,"viability, T/C",compound 1 µM,112% and 87.3% and 81.3%
same,"viability, T/C",compound 3.16 µM,86.4% and 73.3% and 59.9%
same,"viability, T/C",compound 10 µM,66.4% and 71.2% and 48.2%
same,IC50,curve of compound,> 10000 nM and 8430 nM
Cc1cccc(N(C)C(=O)C2C(O)CCN2c2nc(C)cc(C(F)(F)F)c2C#N)c1 (configuration not stated),"viability, T/C",compound 0.316 µM,100% [middle of 12 runs]
same,"viability, T/C",compound 1 µM,97.7% [middle of 12 runs]
same,"viability, T/C",compound 10 µM,95.7% [middle of 12 runs]
same,IC50,"compound alone, run of 01/08/2024",> 10000 nM
same,IC50,"compound alone, run of 01/19/2024",> 10000 nM
COc1cc2cc(C(=O)CCC(=O)O)sc2cc1OC,"viability, T/C",compound 0.0316 µM,87.3% and 78.3% and 95.9%
same,"viability, T/C",compound 0.1 µM,84.1% and 94.8% and 93.8%
same,"viability, T/C",compound 0.316 µM,94.1% and 97.4% and 110%
same,"viability, T/C",compound 1 µM,89.5% and 93.5% and 88.7%
same,"viability, T/C",compound 3.16 µM,86.9% and 84.8% and 98.1%
same,"viability, T/C",compound 10 µM,112% and 90.1% and 96.6%
same,IC50,curve of compound,> 10000 nM
